For data set [1], the target named is T1, LasB (P. aeruginosa PAO1 culture supernatant) (Pseudomonas aeruginosa, UniProt P14756).
T1 construct: The mature LasB protein is a 33 kDa metalloprotease, which is secreted from P. aeruginosa; endogenous in cells; host or cells: P. aeruginosa PAO1 culture supernatant, filtered and dialyzed
Briefly: Elastin Congo Red (ECR) assay, elastin hydrolysis by dialyzed PAO1 culture supernatant. It counts as biochemical. Conditions: 25 μM inhibitor. An excerpt: (§1) This was chosen as the starting point for a medicinal chemistry-driven lead optimization program aiming to improve potency and solubility whilst retaining selectivity against host metalloenzymes. All synthesized compounds were initially assessed in a fluorimetric assay measuring hydrolysis of a fluorogenic substrate Abz-Ala-Gly-Leu-Ala-4-nitrobenzylamide (Abz-AGLA-Nba) by purified LasB and IC50 values determined (Tables 1 and 2). Inhibition of elastin hydrolytic activity was confirmed using an orthogonal assay measuring hydrolysis of Elastin Congo Red (ECR) complex by LasB prepared directly from a P. aeruginosa culture supernatant (Tables 1 and 2). […] Aqueous solubility was determined for most compounds (Tables 1 and 2).
Inhibition of elastin hydrolysis by native LasB, secreted in P. aeruginosa culture supernatants, was measured using the Elastin Congo Red (ECR) assay. Culture supernatants from P. aeruginosa strain PAO1, grown in LB medium at 37 °C for 24 h, were filtered and dialyzed against 50 mM Tris-HCl pH 7.4, 2.5 mM CaCl2 solution at 4 °C and supplemented with 0.01%Triton X-100, 10 mg/mL ECR (Sigma) and 25 μM inhibitor compounds. The reaction mixture was incubated for 16 h at 37 °C with shaking before centrifugation and recovery of the supernatant and measurement of solubilized congo red by absorbance (OD495) using an EnSight multimode plate reader (PerkinElmer).

Data set [2] is described as follows: Thermodynamic solubility in PBS (pH 7.4). It counts as physicochemical. The note with it: aqueous buffer, thermodynamic from solid.
Another data set addresses T2, purified LasB (Pseudomonas aeruginosa, UniProt P14756).
T2 construct: The mature LasB protein is a 33 kDa metalloprotease, which is secreted from P. aeruginosa; host or cells: P. aeruginosa PAO1 (native secretion, culture supernatant)
The data set is described as follows: LasB inhibition, fluorimetric Abz-AGLA-Nba hydrolysis assay with purified LasB. It counts as biochemical.
Description: as §1
Native LasB protein was purified from culture supernatants of P. aeruginosa strain PAO1 (Charles River Laboratories, U.K.). Briefly, the sample was concentrated by ultrafiltration and the protein was purified by chromatography using an anion exchange (pH 8.5) step followed by gel filtration. This procedure yielded an enzyme preparation (0.8 mg/mL) of >98% purity. The enzyme was stored at −80 °C.
LasB inhibition assays were performed using purified LasB enzyme (1 ng/well) for compound screening or using culture supernatants (prepared as described in the ECR assay) for testing LasB variants. Hydrolysis of the fluorogenic peptide substrate 2-aminobenzoyl-Ala-Gly-Leu-Ala-4-nitrobenzylamide (Abz-AGLA-Nba; Peptide International) in 50 mM Tris-HCl (pH 7.4), supplemented with 2.5 mM CaCl2 was followed using an Envision microplate reader (PerkinElmer) at 315 nm excitation and 430 nm emission. For screening of lead compounds, assays were performed in the presence of 0.01% Triton X-100 with a range of inhibitor concentrations from 0.003 to 3.2 μM. IC50 values were determined from Hill plots using Dotmatics Studies ELN software. For the mechanism of inhibition studies, hydrolysis rates were measured in the presence of variable concentrations of substrate and inhibitor, and the inhibition constant (Ki) was determined using Dixon plot analysis.[31]

For data set [3], the target named is T3, secreted LasB in P. aeruginosa PAO1-infected THP-1 macrophages (Pseudomonas aeruginosa, UniProt P14756).
T3 construct: The mature LasB protein is a 33 kDa metalloprotease, which is secreted from P. aeruginosa; endogenous in cells; host or cells: P. aeruginosa PAO1 infecting human THP-1 macrophages (MOI 10:1); supernatant after 2 h
Briefly: LasB activity (Sub115 hydrolysis) in supernatants of P. aeruginosa-infected THP-1 macrophages. Type of data set: cell-based. The note with it: infected THP-1 cells, 5 μM. On the procedure:
(§2) Further to showing in vitro inhibition of LasB-mediated pro-IL-1β proteolysis, experiments were performed to determine the effect of compounds 12 and 16 on IL-1β activation and functionality in human macrophage cell cultures infected with P. aeruginosa PAO1, or an isogenic lasB deletion mutant thereof (ΔlasB). In these experiments, the levels of LasB activity in culture supernatants were measured via hydrolysis of the Sub115 fluorescent peptide, while the effect of LasB activity on IL-1β activation (functionality) was measured using a luciferase reporter cell line sensitive to IL-1β induction (Figure 3).
Human THP-1 macrophages were cultured by conventional methods then, pre-infection, culture media were replaced by RPMI lacking phenol red and antibiotics. Compounds VX-765 (caspase-1 inhibitor, developed by Vertex) and/or LasB inhibitors were added, immediately followed by inoculation with P. aeruginosa PAO1 or an isogenic lasB deletion mutant (ΔlasB), previously grown in Luria broth to late exponential phase (OD600 = 1.2) then washed and diluted in PBS, at a multiplicity of infection (MOI) of 10 to 1. After 2 h post-infection, 50 μL aliquots of supernatant were removed and used to quantitate both LasB activity and IL-1β functionality. To determine LasB activity, 50 μL of supernatant was added to Sub115 IL-1β peptide and hydrolysis of Sub115 was monitored spectrophotometrically with excitation at 355 nm and emission at 450 nm, as described above. Results were expressed as relative fluorescence units (RFU).
In the first variation, experimental infections were performed with P. aeruginosa PAO1 and ΔlasB bacteria incubated with varying quantities of inhibitor at final concentrations ranging from 0.5 to 8 μM. In the second, cells were treated and infected in the same manner and also treated with 5 μM VX-765 to provide a control for IL-1β activation by the inflammasome pathway.

A further data set has as its system IL-1β activation. The data set is described as follows: IL-1β activation in P. aeruginosa-infected THP-1 macrophages (HEK IL-1R-lux reporter assay). It counts as cell-based, human. Conditions: infected THP-1 cells, 5 μM. The procedure:
as §2
Human THP-1 macrophages were cultured by conventional methods then, pre-infection, culture media were replaced by RPMI lacking phenol red and antibiotics. […] After 2 h post-infection, 50 μL aliquots of supernatant were removed and used to quantitate both LasB activity and IL-1β functionality. To determine LasB activity, 50 μL of supernatant was added to Sub115 IL-1β peptide and hydrolysis of Sub115 was monitored spectrophotometrically with excitation at 355 nm and emission at 450 nm, as described above. Results were expressed as relative fluorescence units (RFU).
To determine IL-1β functionality, generation of an IL-1 signal was quantified by adding 50 μL of supernatant to HEK IL-1R-lux reporter cells cultured in RPMI supplemented with 5% heat-inactivated FBS, 200 μg/mL penicillin/streptomycin, 200 μg/mL hygromycin, 100 μg/mL zeomycin, and 0.5 μg/mL puromycin. No bacteria survived in this antibiotic condition; 18 h post-treatment, IL-1β-dependent luciferase induction was assayed by luminescence measured with D-luciferin substrate (Steady-Luc, Biotium) on a multimode reader (PerkinElmer) and expressed as relative luminescence units (RU), as previously described.[16]
In the first variation, experimental infections were performed with P. aeruginosa PAO1 and ΔlasB bacteria incubated with varying quantities of inhibitor at final concentrations ranging from 0.5 to 8 μM. […]
For orientation: Reporter assays use an easily measured gene product as a stand-in for the process of interest.

Molecules are shown by their SMILES. pIC50: −log10 of the molar value. In brackets after ≈: the same amount, converted by molar mass.

This note sets out measurements from article PMC9926489, “Chemical Optimization of Selective Pseudomonas aeruginosa LasB Elastase Inhibitors and Their Impact on LasB-Mediated Activation of IL-1β in Cellular and Animal Infection Models” (ACS Infectious Diseases, 2023).

T2 sequence (P14756 198-498): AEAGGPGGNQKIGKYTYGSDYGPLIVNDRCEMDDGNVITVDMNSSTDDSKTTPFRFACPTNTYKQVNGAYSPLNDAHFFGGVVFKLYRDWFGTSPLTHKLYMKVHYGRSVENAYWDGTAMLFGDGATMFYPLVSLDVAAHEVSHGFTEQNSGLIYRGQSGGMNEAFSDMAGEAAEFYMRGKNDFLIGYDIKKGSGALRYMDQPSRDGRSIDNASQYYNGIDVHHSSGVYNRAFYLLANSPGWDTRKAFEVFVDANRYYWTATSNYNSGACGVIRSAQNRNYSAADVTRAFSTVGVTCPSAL
T1 sequence (P14756 198-498): as above
T3 sequence (P14756 198-498): as above

The term solubility denotes the concentration that dissolves in the medium under given conditions. Low values mean a poorly soluble substance, high ones a readily soluble substance. As a reminder, the pIC50 is −log10 of the IC50, conventionally taken in molar units. A lower pIC50 goes with a large IC50. Consider `O=C(O)CC1(C(=O)NCc2nc3ccccc3s2)Cc2cc(F)c(F)cc2C1` [Compound 10], for which, in data set [1], the “Elastin hydrolysis @ 25 μM (% inh)” value stood at 66 % inh. The solubility in data set [2] came to 600 µg/mL (≈ 1.49 mM). For the same compound, the pIC50 against purified LasB was 6.85.
The like results for `O=C(O)CC1(C(=O)NCc2nc3ccccc3s2)Cc2ccccc2C1` [Compound 1] were, in that order, 69 % inh, 580 µg/mL (≈ 1.58 mM) and 6.39.
The like results for `COc1cc2sc(CNC(=O)C3(CC(=O)O)Cc4ccccc4C3)nc2cc1OCCC[N+](C)(CCO)CCO` [Compound 15] were, in that order, 69 % inh, 17600 µg/mL and 6.72.
`COc1ccc2sc(CNC(=O)C3(CC(=O)O)Cc4ccccc4C3)nc2c1` [Compound 3]: the “Elastin hydrolysis @ 25 μM (% inh)” value in data set [1] came out at 64 % inh. At purified LasB, this compound gave a negative-log IC50 (pIC50) of 6.82.
On the same counts, the results for `O=C(O)CC1(C(=O)NCc2nc3cc(Cl)ccc3s2)Cc2ccccc2C1` [Compound 2] are 58 % inh and 6.46.
On to `C[N+](C)(C)CCOc1ccc2sc(CNC(=O)C3(CC(=O)O)Cc4ccccc4C3)nc2c1` [Compound 9], for which the “Elastin hydrolysis @ 25 μM (% inh)” value in data set [1] is listed as 40 % inh. The compound further yielded a solubility in data set [2] of 18100 µg/mL. The negative logarithm of the IC50 (pIC50) against purified LasB is 6.09.
As for `CCO[C@@H]1OC(=O)C[C@@H]1NC(=O)[C@@H]1CCCN1C(=O)[C@@H](NC(=O)c1ccc(N)c(Cl)c1)C(C)(C)C` [VX-765, reference compound], in data set [3], the “effect on LasB activity” value is reported as “no effect”. The “effect on IL-1β activation” value with IL-1β activation is given as “reduced IL-1β activation”.
On to `CN(C)CCOc1ccc2sc(CNC(=O)C3(CC(=O)O)Cc4ccccc4C3)nc2c1` [Compound 7], for which the “Elastin hydrolysis @ 25 μM (% inh)” value in data set [1] turned out to be 42 % inh. Further, in data set [2], the solubility was 4200 µg/mL (≈ 9.26 mM). Also, on purified LasB, the negative-log IC50 (pIC50) was 6.17.
The like results for `COc1cc2sc(CNC(=O)C3(CC(=O)O)Cc4cc(F)c(F)cc4C3)nc2cc1OCC1CC[N+](C)(C)CC1` [Compound 14] were, in that order, 72 % inh, 17800 µg/mL and 7.05.
On the same counts, the results for `CN1CCN(c2ccc3nc(CNC(=O)C4(CC(=O)O)Cc5ccccc5C4)sc3c2)CC1` [Compound 6] are 39 % inh, 3400 µg/mL (≈ 7.32 mM) and 5.80.
The like results for `C[N+]1(C)CCN(c2ccc3nc(CNC(=O)C4(CC(=O)O)Cc5ccccc5C4)sc3c2)CC1` [Compound 8] were, in that order, 33 % inh, 18700 µg/mL and 5.87.
Regarding `COc1cc2nc(CNC(=O)C3(CC(=O)O)Cc4ccccc4C3)sc2cc1OC` [Compound 4], in data set [1], the “Elastin hydrolysis @ 25 μM (% inh)” value is reported as 82 % inh. In data set [2], this compound came in with a solubility of 2000 µg/mL (≈ 4.69 mM). Moreover, on purified LasB, the negative logarithm of the IC50 (pIC50) is 7.70.
On the same counts, the results for `O=C(O)CC1(C(=O)NCc2nc3cc4c(cc3s2)OCO4)Cc2ccccc2C1` [Compound 5] are 75 % inh, 2000 µg/mL (≈ 4.87 mM) and 6.92.
With `COc1cc2sc(CNC(=O)C3(CC(=O)O)Cc4ccccc4C3)nc2cc1OCCCN(C)C` [Compound 11], the “Elastin hydrolysis @ 25 μM (% inh)” value in data set [1] is listed as 69 % inh. Besides, at purified LasB, the negative-log IC50 (pIC50) is 7.10.
As to `COc1cc2sc(CNC(=O)C3(CC(=O)O)Cc4ccccc4C3)nc2cc1OCC1CC[N+](C)(C)CC1` [Compound 13], the “Elastin hydrolysis @ 25 μM (% inh)” value in data set [1] was 66 % inh. Further, in data set [2], the solubility worked out at 15800 µg/mL. Besides, the negative-log IC50 (pIC50) against purified LasB was 6.89.
